# Assay results as given in patent US11753403B2, “EIF4E inhibitors and uses thereof” (PIC Therapeutics, Inc., priority 2020, dated 2023).
# Target: Human eIF4E (aa 28-217) / biotin labeled 4G2 peptide (Homo sapiens (Human), UniProt P06730)
# Assay: Human eIF4E/4G2 binding assay (TR-FRET)
# Settings: Human eIF4E/4G2 TR-FRET binding assay; head says IC50, legend says EC50
# Procedure, shortened: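 Refolded His-tagged human eIF4E (aa 28-217), 82.5 nM working stock, preincubated 4 h at RT with compounds (10-point 2-fold series) in NaPi pH 6.5 buffer with DTT and gamma globulin. Biotin-4G2 peptide then added for 20 min, followed by Eu-streptavidin/APC-anti-His for 20 min; TR-FRET 665/615 nm ratio normalized, IC50 fitted.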
# Sequence of Human eIF4E (aa 28-217) / biotin labeled 4G2 peptide (P06730 28-217): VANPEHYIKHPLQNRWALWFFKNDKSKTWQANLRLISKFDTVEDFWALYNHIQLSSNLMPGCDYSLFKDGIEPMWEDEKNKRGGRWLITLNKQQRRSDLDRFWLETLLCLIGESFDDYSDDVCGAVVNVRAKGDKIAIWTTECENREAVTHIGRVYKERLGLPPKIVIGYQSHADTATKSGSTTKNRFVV
row,SMILES,IC50 [µM]
1,Cc1cc(CC(CNc2nc(-c3ccc(Cl)c(Cl)c3)c(CC(C)C)s2)C(=O)O)cc(C)n1 (stereo not shown) [I-150],1 to 10
2,Cc1cc(CC(CNc2nc(-c3ccc(Cl)c(Cl)c3)c(CC(C)C)s2)C(=O)O)ccn1 (stereo not shown) [I-151],1 to 10
3,CC(C)Cc1sc(NCC(Cc2ccc(N(C)C)nc2)C(=O)O)nc1-c1ccc(Cl)c(Cl)c1 (stereo not shown) [I-154],1 to 10
4,Cc1ncccc1CC(CNc1nc(-c2ccc(Cl)c(Cl)c2)c(CC(C)C)s1)C(=O)O (stereo not shown) [I-156],1 to 10
5,Cc1ccc(CC(CNc2nc(-c3ccc(Cl)c(Cl)c3)c(CC(C)C)s2)C(=O)O)c(C)n1 (stereo not shown) [I-157],1 to 10
6,"CC(C)Cc1sc(NCC(Cc2cnc(O)nc2)C(=O)O)nc1-c1ccc(Cl)c(Cl)c1 (stereo not shown) [I-159, 3-(4-(3,4-dichlorophenyl)-5-isobutylthiazol-2-ylamino)-2-((2-hydroxypyrimidin-5-yl)methyl)propanoic acid]",1 to 10
7,COc1ncc(CC(CNc2nc(-c3ccc(Cl)c(Cl)c3)c(CC(C)C)s2)C(=O)O)cn1 (stereo not shown) [I-160],> 10
8,CC(C)Cc1sc(NCC(Cc2ccncn2)C(=O)O)nc1-c1ccc(Cl)c(Cl)c1 (stereo not shown) [I-161],1 to 10
9,CC(C)Cc1sc(NCC(Cc2ccc(O)nc2)C(=O)O)nc1-c1ccc(Cl)c(Cl)c1 (stereo not shown) [I-162],1 to 10
10,COc1ccc(CC(CNc2nc(-c3ccc(Cl)c(Cl)c3)c(CC(C)C)s2)C(=O)O)cn1 (stereo not shown) [I-163],1 to 10
11,CC(C)Cc1sc(NCC(Cc2ccnc(O)c2)C(=O)O)nc1-c1ccc(Cl)c(Cl)c1 (stereo not shown) [I-164],1 to 10
12,COc1cc(CC(CNc2nc(-c3ccc(Cl)c(Cl)c3)c(CC(C)C)s2)C(=O)O)ccn1 (stereo not shown) [I-165],1 to 10
13,CSc1ccc(CC(CNc2nc(-c3ccc(Cl)c(Cl)c3)c(CC(C)C)s2)C(=O)O)cc1 (stereo not shown) [I-174],≤ 1
14,O=C(O)C(CNc1nc(-c2ccc(Cl)c(Cl)c2)c(C2CCCC2)s1)Cc1ccccc1 (stereo not shown) [I-177],≤ 1
15,O=C(O)C(CNc1nc(-c2ccc(Cl)c(Cl)c2)c(C2CCC2)s1)Cc1ccccc1 (stereo not shown) [I-178],1 to 10
16,"O=C(O)c1sc(NCC(Cc2ccccc2)C(=O)O)nc1-c1ccc(Cl)c(Cl)c1 (stereo not shown) [I-183, 2-(2-carboxy-3-phenylpropylamino)-4-(3,4-dichlorophenyl)thiazole-5-carboxylic acid]",> 10
17,"O=C(O)C(CNc1nc(-c2ccc(Cl)c(Cl)c2)c(CC(F)(F)F)s1)Cc1ccccc1 (stereo not shown) [I-184, 2-benzyl-3-(4-(3,4-dichlorophenyl)-5-(2,2,2-trifluoroethyl)thiazol-2-ylamino)propanoic acid]",1 to 10
18,"C=C(C)c1sc(NCC(Cc2ccccc2)C(=O)O)nc1-c1ccc(Cl)c(Cl)c1 (stereo not shown) [I-185, 2-benzyl-3-(4-(3,4-dichlorophenyl)-5-(prop-1-en-2-yl)thiazol-2-ylamino)propanoic acid]",1 to 10
19,"CC(C)Cc1sc(N2CCN(C(=O)CCN)C(C(=O)O)C2)nc1-c1ccc(Cl)c(Cl)c1 (stereo not shown) [I-199, 1-(3-aminopropanoyl)-4-(4-(3,4-dichlorophenyl)-5-isobutylthiazol-2-yl)piperazine-2-carboxylic acid]",> 10
20,"CC(C)Cc1sc(NCc2cccc(O)n2)nc1-c1ccc(Cl)c(Cl)c1 [I-201, 6-((4-(3,4-dichlorophenyl)-5-isobutylthiazol-2-ylamino)methyl)pyridin-2-ol]",> 10
21,CC(C)Cc1sc(NCc2cccnc2O)nc1-c1ccc(Cl)c(Cl)c1 [I-202],> 10
22,"CC(C)Cc1sc(Nc2ccc(O)c(C(=O)O)c2)nc1-c1ccc(Cl)c(Cl)c1 [I-207, 5-(4-(3,4-dichlorophenyl)-5-isobutylthiazol-2-ylamino)-2-hydroxybenzoic acid]",1 to 10
23,CC(C)Cc1sc(Nc2ccc(Cl)c(C(=O)O)c2)nc1-c1ccc(Cl)c(Cl)c1 [I-208],≤ 1
24,CC(C)Cc1sc(Nc2ccc(F)c(C(=O)O)c2)nc1-c1ccc(Cl)c(Cl)c1 [I-209],≤ 1
25,COc1ccc(Nc2nc(-c3ccc(Cl)c(Cl)c3)c(CC(C)C)s2)cc1C(=O)O [I-210],≤ 1
26,CC(C)Cc1sc(Nc2ccc(N3CCOCC3)c(C(=O)O)c2)nc1-c1ccc(Cl)c(Cl)c1 [I-211],> 10
27,CC(C)Cc1sc(Nc2cc(F)cc(C(=O)O)c2)nc1-c1ccc(Cl)c(Cl)c1 [I-212],≤ 1

# The remaining lines, values ahead:
row,IC50 [µM],SMILES
1,> 10,CC(C)Cc1sc(N(CCCCCC(N)=O)CCC(=O)O)nc1-c1ccc(Cl)c(Cl)c1 [I-149]
2,1 to 10,CC(C)Cc1sc(NCC(Cc2ccncc2)C(=O)O)nc1-c1ccc(Cl)c(Cl)c1 (stereo not shown) [I-152]
3,> 10,CC(C)Cc1sc(NCC(Cc2ccc(N)nc2)C(=O)O)nc1-c1ccc(Cl)c(Cl)c1 (stereo not shown) [I-153]
4,1 to 10,CC(C)Cc1sc(NCC(Cc2cccnc2)C(=O)O)nc1-c1ccc(Cl)c(Cl)c1 (stereo not shown) [I-155]
5,1 to 10,CC(C)Cc1sc(NCC(Cc2ccccn2)C(=O)O)nc1-c1ccc(Cl)c(Cl)c1 (stereo not shown) [I-158]
6,1 to 10,"CC(C)Cc1sc(NCC(Cc2ccc(C(N)=O)cc2)C(=O)O)nc1-c1ccc(Cl)c(Cl)c1 (stereo not shown) [I-166, 2-(4-carbamoylbenzyl)-3-(4-(3,4-dichlorophenyl)-5-isobutylthiazol-2-ylamino)propanoic acid]"
7,1 to 10,CC(C)Cc1sc(NCC(Cc2cccc(C(N)=O)c2)C(=O)O)nc1-c1ccc(Cl)c(Cl)c1 (stereo not shown) [I-167]
8,1 to 10,"CC(C)Cc1sc(NCC(Cc2cccc(C(=O)N(C)C)c2)C(=O)O)nc1-c1ccc(Cl)c(Cl)c1 (stereo not shown) [I-168, 3-(4-(3,4-dichlorophenyl)-5-isobutylthiazol-2-ylamino)-2-(3-(dimethylcarbamoyl)benzyl)propanoic acid]"
9,1 to 10,CNC(=O)c1cccc(CC(CNc2nc(-c3ccc(Cl)c(Cl)c3)c(CC(C)C)s2)C(=O)O)c1 (stereo not shown) [I-169]
10,1 to 10,CC(C)Cc1sc(N2CCN(c3ccccc3)C(C(=O)O)C2)nc1-c1ccc(Cl)c(Cl)c1 (stereo not shown) [I-170]
11,≤ 1,CSc1cccc(CC(CNc2nc(-c3ccc(Cl)c(Cl)c3)c(CC(C)C)s2)C(=O)O)c1 (stereo not shown) [I-171]
12,1 to 10,CC(C)Cc1sc(NCC(Cc2cccc(S(C)(=O)=O)c2)C(=O)O)nc1-c1ccc(Cl)c(Cl)c1 (stereo not shown) [I-172]
13,1 to 10,CC(C)Cc1sc(NCC(Cc2cccc(S(N)(=O)=O)c2)C(=O)O)nc1-c1ccc(Cl)c(Cl)c1 (stereo not shown) [I-173]
14,1 to 10,CC(C)Cc1sc(NCC(Cc2ccc(S(C)(=O)=O)cc2)C(=O)O)nc1-c1ccc(Cl)c(Cl)c1 (stereo not shown) [I-175]
15,1 to 10,CC(C)Cc1sc(NCC(Cc2ccc(S(N)(=O)=O)cc2)C(=O)O)nc1-c1ccc(Cl)c(Cl)c1 (stereo not shown) [I-176]
16,1 to 10,O=C(O)C(CNc1nc(-c2ccc(Cl)c(Cl)c2)c(CC2CC2)s1)Cc1ccccc1 (stereo not shown) [I-179]
17,≤ 1,CC(C)CCc1sc(NCC(Cc2ccccc2)C(=O)O)nc1-c1ccc(Cl)c(Cl)c1 (stereo not shown) [I-180]

row,IC50 [µM],SMILES
1,> 10,"CS(=O)(=O)c1sc(NCC(Cc2ccccc2)C(=O)O)nc1-c1ccc(Cl)c(Cl)c1 (stereo not shown) [I-181, 2-benzyl-3-(4-(3,4-dichlorophenyl)-5-(methylsulfonyl)thiazol-2-ylamino)propanoic acid]"
2,1 to 10,"CCOC(=O)c1sc(NCC(Cc2ccccc2)C(=O)O)nc1-c1ccc(Cl)c(Cl)c1 (stereo not shown) [I-182, 2-benzyl-3-(4-(3,4-dichlorophenyl)-5-(ethoxycarbonyl)thiazol-2-ylamino)propanoic acid]"
3,> 10,"CC(C)Cc1sc(N(CCS(=O)(=O)NC(=O)CN)Cc2ccccc2)nc1-c1ccc(Cl)c(Cl)c1 [I-187, 2-amino-N-(2-(benzyl(4-(3,4-dichlorophenyl)-5-isobutylthiazol-2-yl)amino)ethylsulfonyl)acetamide]"
4,> 10,CC(C)Cc1sc(N(CCS(=O)(=O)NC(=O)CCN)Cc2ccccc2)nc1-c1ccc(Cl)c(Cl)c1 [I-188]
5,> 10,CC(C)Cc1sc(N(CCC(N)=O)Cc2ccccc2)nc1-c1ccc(Cl)c(Cl)c1 [I-189]
6,≤ 1,"CC(C)Cc1sc(N(Cc2ccccc2)CC(O)C(=O)O)nc1-c1ccc(Cl)c(Cl)c1 (stereo not shown) [I-190, 3-(benzyl(4-(3,4-dichlorophenyl)-5-isobutylthiazol-2-yl)amino)-2-hydroxypropanoic acid]"
7,1 to 10,"CC(C)Cc1sc(N(CCCN)Cc2ccccc2)nc1-c1ccc(Cl)c(Cl)c1 [I-191, N^1-benzyl-N^1-(4-(3,4-dichlorophenyl)-5-isobutylthiazol-2-yl)propane-1,3-diamine]"
8,1 to 10,CC(C)Cc1sc(N(CCC(=O)NCCCN)Cc2ccccc2)nc1-c1ccc(Cl)c(Cl)c1 [I-192]
9,> 10,CC(C)Cc1sc(N(CCC(=O)NCC(N)=O)Cc2ccccc2)nc1-c1ccc(Cl)c(Cl)c1 [I-193]
10,> 10,CC(C)Cc1sc(N(CCC(=O)NCc2ncc[nH]2)Cc2ccccc2)nc1-c1ccc(Cl)c(Cl)c1 [I-195]
11,1 to 10,CC(C)Cc1sc(N(CCC(=O)NCC(=O)O)Cc2ccccc2)nc1-c1ccc(Cl)c(Cl)c1 [I-196]
12,1 to 10,"CC(C)Cc1sc(N(CCC(=O)NCCNC(=N)N)Cc2ccccc2)nc1-c1ccc(Cl)c(Cl)c1 [I-197, 3-(benzyl(4-(3,4-dichlorophenyl)-5-isobutylthiazol-2-yl)amino)-N-(2-guanidinoethyl) propanamide]"
13,> 10,CC(C)Cc1sc(N(CCC(=O)NS(=O)(=O)CCN)Cc2ccccc2)nc1-c1ccc(Cl)c(Cl)c1 [I-198]
14,> 10,"CNC(=O)CCN(Cc1ccccc1)c1nc(-c2ccc(Cl)c(Cl)c2)c(CC(C)C)s1 [I-200, 3-(benzyl(4-(3,4-dichlorophenyl)-5-isobutylthiazol-2-yl)amino)-N-methylpropanamide]"
15,1 to 10,"CC(C)Cc1sc(-c2cccc(C(=O)O)c2)nc1-c1ccc(Cl)c(Cl)c1 [I-203, 3-(4-(3,4-dichlorophenyl)-5-isobutylthiazol-2-yl)benzoic acid]"
16,> 10,"CC(C)Cc1sc(N(CCC(=O)O)Cc2cccc(C(=O)NCCN)c2)nc1-c1ccc(Cl)c(Cl)c1 [I-205, 3-((3-(2-aminoethylcarbamoyl)benzyl)(4-(3,4-dichlorophenyl)-5-isobutylthiazol-2-yl)amino)propanoic acid]"
17,1 to 10,"CSc1sc(NCC(Cc2ccccc2)C(=O)O)nc1-c1ccc(Cl)c(Cl)c1 (stereo not shown) [I-206, 2-benzyl-3-(4-(3,4-dichlorophenyl)-5-(methylthio)thiazol-2-ylamino)propanoic acid]"
